Assay [1] concerns T-Rex 293 cell line SC3 cells lacking increased expression of androgen receptor protein. As to the kind of experiment: Cellular growth inhibition, T-Rex 293 SC3 cells without doxycycline (no increased androgen receptor expression), CellTiter-Glo. It counts as cell-based. Particulars: T-Rex 293 SC3 cells not exposed to doxycycline (no increased androgen receptor expression), 72 hours. On the procedure:
(§1) The following types of cells were prepared for this experiment: (i) a T-Rex 293 cell line having increased expression of androgen receptor protein due to exposure to doxycycline and (ii) a T-Rex 293 cell line lacking increased expression of androgen receptor protein. Ability of the test compounds to inhibit proliferation of the foregoing cell types was evaluated according to the procedures set forth below.
(§2) The doxycycline-inducible androgen receptor protein expressing cell line was established using the following protocol: T-Rex 293 cells were purchased from Invitrogen (Cat #R71007) and transfected using Lipofectamine 2000 with the wild-type androgen receptor protein sequence cloned into the pcDNA4/TO vector. Transfected cells were selected using 400 μg/mL Zeocin (Invitrogen Cat #R25001). Following selection, single clones were raised and maintained in Dulbecco's Modified Eagle Medium (DMEM) supplemented with 10% w/w Tetracycline-free fetal bovine serum (FBS) and 250 μg/mL Zeocin. Clones were analyzed for expression of androgen receptor protein in the presence and absence of 10 ng/mL doxycycline (Sigma Cat #D9891), and a single doxycycline-inducible clone (hereinafter “SC3”) was selected for use in downstream assays.
(§3) The SC3 cells were seeded on poly-D-lysine coated, black clear-bottom 384-well plates at 2500/well, in 25 μL Phenol Red Free Dulbecco's Modified Eagle Medium (DMEM) supplemented with 10% w/w charcoal-dextran treated fetal bovine serum (FBS) and 1% w/w pen-strep, with or without 10 ng/mL doxycycline. Pen-Strep is a commercially available mixture of penicillin G and streptomycin, which is used in mammalian cell culture media to prevent bacterial contamination. Phenol Red Free Dulbecco's Modified Eagle Medium (DMEM) supplemented with 10% w/w charcoal-dextran treated fetal bovine serum (FBS) and 1% w/w pen-strep, with or without 10 ng/mL doxycycline is herein referred to as Treatment Medium. Following seeding of cells in the plates, the plates were spun at 300×g for 30 seconds, then equilibrated to room temperature for 30 minutes, and then deposited in a humidified tissue culture incubator maintained at 37° C. with 5% CO2.
(§4) At 24 hours after seeding of the cells, dilutions of test compound were prepared in DMSO and dissolved in Treatment Medium, to achieve a final DMSO concentration of 0.5% w/w, thereby providing the Test Compound Solution. A 25 μL aliquot of the Test Compound Solution was added to cells in the well plates. An equal volume of a solution containing DMSO and Treatment Medium was used as a negative control. Following treatment of cells with Test Compound Solution or said equal volume of a solution containing DMSO and Treatment Medium, the plates were spun at 300×g for 30 seconds, and then left in an incubator for 72 hours.
(§5) At the end of the treatment duration, cell viability was quantified with CellTiter-Glo 2.0 reagent (Promega Cat #G9243). For this purpose, plates were equilibrated to room temperature for 30 minutes, and then 25 μL of CellTiter-Glo 2.0 reagent was added to cells in the plate wells. Plates were then agitated on a shaker for two minutes at 500 rpm and subsequently incubated at room temperature for 10 minutes. Following incubation, the plates were spun at 3000×g for 30 seconds, then sealed with an optical adhesive cover, and luminescence readings were measured with an EnVision Plate Reader.
(§6) Data was normalized using zero luminescence for baseline. A four-parameter non-linear regression curve fit was applied to dose-response data in GraphPad Prism data analysis software to determine the half-maximal growth inhibitory concentration (GI50) for each test compound.

In assay [2] the test system is T-Rex 293 cell line SC3 cells having increased expression of androgen receptor protein due to exposure to doxycycline. Put plainly: Cellular growth inhibition, T-Rex 293 SC3 cells with doxycycline (increased androgen receptor expression), CellTiter-Glo. The format is cell-based. Particulars: T-Rex 293 SC3 cells with 10 ng/mL doxycycline (increased androgen receptor expression), 72 hours, CellTiter-Glo 2.0. The method, then:
as §1, §2, §3, §4, §5, §6
(In general: ATP-based viability assays read luminescence as a measure of living cells.)

The next assay concerns VCaP cells. As to the kind of experiment: Cellular growth inhibition assay for VCaP cells, CellTiter-Glo. The format is cell-based, human. Conditions: 72 hours. On the procedure: VCaP cells were purchased from American Type Cell Culture (ATCC Cat #CRL2876) and then seeded on poly-D-lysine coated, black clear-bottom 384-well plates at 5000/well in 25 μL Dulbecco's Modified Eagle Medium (DMEM) supplemented with 10% w/w Fetal bovine serum (FBS) and 1% w/w Pen-Strep. Pen-Strep is a commercially available mixture of penicillin G and streptomycin, which is used in mammalian cell culture media to prevent bacterial contamination. Dulbecco's Modified Eagle Medium (DMEM) supplemented with 10% w/w fetal bovine serum (FBS) and 1% w/w Pen-Strep is herein referred to as Treatment Medium. Following seeding of cells in the plates, the plates were spun at 300×g for 30 seconds, then equilibrated to room temperature for 30 minutes, and then deposited in a humidified tissue culture incubator maintained at 37° C. with 5% CO2.
as §4, §5, §6

For orientation: GI50 means the concentration at which growth is held to half of that of the control. A lower GI50 goes with more potent growth inhibition. As for `CCS(=O)(=O)Nc1ccc(Oc2cccc(N(C)CCOC3CCN(c4ncc(C(=O)N[C@H]5C(C)(C)[C@H](Oc6ccc(C#N)c(Cl)c6)C5(C)C)cn4)CC3)c2)c(-c2cn(C)c(=O)c3[nH]ccc23)c1` [Compound I-113], the GI50 (in assay [1]; in assay [2]; with VCaP cells (Homo sapiens)) was under 0.5 µM each time.

For `CCS(=O)(=O)Nc1ccc(Oc2cc(F)cc(OCCOC3CCN(c4ncc(C(=O)N[C@H]5C(C)(C)[C@H](Oc6ccc(C#N)c(Cl)c6)C5(C)C)cn4)CC3)c2)c(-c2cn(C)c(=O)c3[nH]ccc23)c1` [Compound I-127], the GI50 in assay [1] is over 3 µM; in assay [2], under 0.5 µM; with VCaP cells (Homo sapiens), under 0.5 µM.

Turning to `CCC(=O)N(C)c1ccc(Oc2cccc(OCCOC3CCN(c4ncc(C(=O)N[C@H]5C(C)(C)[C@H](Oc6ccc(C#N)c(Cl)c6)C5(C)C)cn4)CC3)c2)c(-c2cn(C)c(=O)c3[nH]ccc23)c1` [Compound I-60], the 50% growth inhibitory concentration (GI50) was over 3 µM in assay [1], under 0.5 µM in assay [2] and under 0.5 µM in the assay with VCaP cells (Homo sapiens).

Turning to `CCS(=O)(=O)Nc1ccc(Oc2cccc(CCCOC3CCN(c4ncc(C(=O)N[C@H]5C(C)(C)[C@H](Oc6ccc(C#N)c(Cl)c6)C5(C)C)cn4)CC3)c2)c(-c2cn(C)c(=O)c3[nH]ccc23)c1` [Compound I-20], the 50% growth inhibitory concentration (GI50) (in assay [1]; in assay [2]; in the assay on VCaP cells (Homo sapiens)) was under 0.5 µM each time.

Regarding `CCS(=O)(=O)Nc1cc(F)c(Oc2cccc(OCCOC3CCN(c4ncc(C(=O)N[C@H]5C(C)(C)[C@H](Oc6ccc(C#N)c(Cl)c6)C5(C)C)cn4)CC3)c2)c(-c2cn(C)c(=O)c3[nH]ccc23)c1` [Compound I-161], the GI50 in assay [1] was over 3 µM; in assay [2], under 0.5 µM; in the assay with VCaP cells (Homo sapiens), under 0.5 µM.

For the compound `CCS(=O)(=O)c1ccc(OCC(OCCOC2CCN(c3ncc(C(=O)N[C@H]4C(C)(C)[C@H](Oc5ccc(C#N)c(Cl)c5)C4(C)C)cn3)CC2)C2CC2)c(-c2cn(C)c(=O)c3[nH]ccc23)c1` (stereo partly shown) [Compound I-177], the GI50 (in assay [1]; in assay [2]; in the assay with VCaP cells) was under 0.5 µM each time.

Consider `CCS(=O)(=O)Nc1ccc(Oc2cccc(OCCCCC3CCN(c4ncc(C(=O)N[C@H]5C(C)(C)[C@H](Oc6ccc(C#N)c(Cl)c6)C5(C)C)cn4)CC3)c2)c(-c2cn(C)c(=O)c3[nH]ccc23)c1` [Compound I-28], for which the results for the 50% growth inhibitory concentration (GI50) (in assay [1]; in assay [2]; with VCaP cells (Homo sapiens)) were 0.5 to 1.5 µM, under 0.5 µM and under 0.5 µM, respectively.

Take `CCS(=O)(=O)Cc1ccc(Oc2cccc(CCOC3CCN(c4ncc(C(=O)N[C@H]5C(C)(C)[C@H](Oc6ccc(C#N)c(Cl)c6)C5(C)C)cn4)CC3)c2F)c(-c2cn(C)c(=O)c3[nH]ccc23)c1` [Compound I-160]: the GI50 (in assay [1]; in assay [2]; in the assay with VCaP cells) was under 0.5 µM throughout.

`CCS(=O)(=O)Nc1ccc(Oc2cccc(OCCOCCOCCN(C)c3ncc(C(=O)N[C@H]4C(C)(C)[C@H](Oc5ccc(C#N)c(Cl)c5)C4(C)C)cn3)c2)c(-c2cn(C)c(=O)c3[nH]ccc23)c1` [Compound I-2]: the values for the GI50 in assay [1] and in assay [2] were 1.5 to 3 µM and under 0.5 µM, respectively.

In the case of `CCS(=O)(=O)Nc1ccc(Oc2ccc(OCCOC3CCN(c4ncc(C(=O)N[C@H]5C(C)(C)[C@H](Oc6ccc(C#N)c(Cl)c6)C5(C)C)cn4)CC3)cc2)c(-c2cn(C)c(=O)c3[nH]ccc23)c1` [Compound I-139], the GI50 (in assay [1]; in assay [2]; in the assay with VCaP cells) was under 0.5 µM throughout.

Consider `CCS(=O)(=O)Nc1ccc(Oc2cccc(OCCCCN3CCN(CC4CCN(c5ncc(C(=O)N[C@H]6C(C)(C)[C@H](Oc7ccc(C#N)c(Cl)c7)C6(C)C)cn5)CC4)CC3)c2)c(-c2cn(C)c(=O)c3[nH]ccc23)c1` [Compound I-34], for which the GI50 (in assay [1]; in assay [2]; in the assay on VCaP cells (Homo sapiens)) was under 0.5 µM in each case.

With `CCS(=O)(=O)Nc1ccc(Oc2cccc(NCCN(C)C3CCN(c4ncc(C(=O)N[C@H]5C(C)(C)[C@H](Oc6ccc(C#N)c(Cl)c6)C5(C)C)cn4)CC3)c2)c(-c2cn(C)c(=O)c3[nH]ccc23)c1` [Compound I-173], the 50% growth inhibitory concentration (GI50) is over 3 µM in assay [1], 0.5 to 1.5 µM in assay [2] and under 0.5 µM with VCaP cells (Homo sapiens).

On to `CCS(=O)(=O)Nc1cnc(Oc2cccc(OCCOC3CCN(c4cnc(C(=O)N[C@H]5C(C)(C)[C@H](Oc6ccc(C#N)c(Cl)c6)C5(C)C)cn4)CC3)c2)c(-c2cn(C)c(=O)c3[nH]ccc23)c1` [Compound I-46], for which the GI50 is over 3 µM in assay [1], under 0.5 µM in assay [2] and under 0.5 µM in the assay on VCaP cells (Homo sapiens).

For `CCS(=O)(=O)Cc1ccc(Oc2cccc(CCOC3CCN(c4ncc(C(=O)N[C@H]5C(C)(C)[C@H](Oc6ccc(C#N)c(Cl)c6)C5(C)C)cn4)CC3)c2)c(-c2cn(C)c(=O)c3[nH]ccc23)c1` [Compound I-159], the GI50 (in assay [1]; in assay [2]; with VCaP cells) was under 0.5 µM in each case.

As for `CCS(=O)(=O)Nc1ccc(Oc2cccc(OC3CN(CC4CCN(c5ncc(C(=O)N[C@H]6C(C)(C)[C@H](Oc7ccc(C#N)c(Cl)c7)C6(C)C)cn5)CC4)C3)c2)c(-c2cn(C)c(=O)c3[nH]ccc23)c1` [Compound I-38], the GI50 (in assay [1]; in assay [2]; in the assay on VCaP cells (Homo sapiens)) was under 0.5 µM each time.

In the case of `CCS(=O)(=O)Nc1ccc(Oc2cccc(CCCOC3CCN(c4ncc(C(=O)N[C@H]5C(C)(C)[C@H](Oc6ccc(C#N)c(Cl)c6)C5(C)C)cn4)CC3)c2F)c(-c2cn(C)c(=O)c3[nH]ccc23)c1` [Compound I-154], the 50% growth inhibitory concentration (GI50) (in assay [1]; in assay [2]; with VCaP cells (Homo sapiens)) was under 0.5 µM each time.

In the case of `CCS(=O)(=O)Nc1ccc(Oc2cccc(OCCOC3CCN(c4ccc(C(=O)N[C@H]5C(C)(C)[C@H](Oc6ccc(C#N)c(Cl)c6)C5(C)C)cn4)CC3)c2F)c(-c2cn(C)c(=O)c3[nH]ccc23)c1` [Compound I-188], the GI50 (in assay [1]; in assay [2]; with VCaP cells (Homo sapiens)) was under 0.5 µM in each case.

As to `CCC(=O)Nc1ccc(Oc2cccc(OCCOC3CCN(c4ncc(C(=O)N[C@H]5C(C)(C)[C@H](Oc6ccc(C#N)c(Cl)c6)C5(C)C)cn4)CC3)c2)c(-c2cn(C)c(=O)c3[nH]ccc23)c1` [Compound I-59, N-((1r, 3r)-3-(3-chloro-4-cyanophenoxy)-2,2,4,4-tetramethylcyclobutyl)-2-(4-(2-(3-(2-(6-methyl-7-oxo-6,7-dihydro-1H-pyrrolo[2,3-c]pyridin-4-yl)-4-propionamidophenoxy)phenoxy)ethoxy)piperidin-1-yl)pyrimidine-5-carboxamide], the GI50 is over 3 µM in assay [1], under 0.5 µM in assay [2] and over 3 µM in the assay on VCaP cells (Homo sapiens).

As for `CCS(=O)(=O)Cc1ccc(Oc2cccc(OCCCC3CCN(c4ncc(C(=O)N[C@H]5C(C)(C)[C@H](Oc6ccc(C#N)c(Cl)c6)C5(C)C)cn4)CC3)c2F)c(-c2cn(C)c(=O)c3[nH]ccc23)c1` [Compound I-168], the concentration for 50% growth inhibition (GI50) in assay [1] was over 3 µM; in assay [2] it was under 0.5 µM; with VCaP cells (Homo sapiens), under 0.5 µM.

With `CCS(=O)(=O)Nc1ccc(Oc2cccc(OCCOCCOCCOCCOCCOCCOCCN(C)c3ncc(C(=O)N[C@H]4C(C)(C)[C@H](Oc5ccc(C#N)c(Cl)c5)C4(C)C)cn3)c2)c(-c2cn(C)c(=O)c3[nH]ccc23)c1` [Compound I-4], the GI50 in assay [1] and in assay [2] was under 0.5 µM each time.

(Values after patent publication US20250388605A1, “HETEROBIFUNCTIONAL COMPOUNDS AND METHODS OF TREATING DISEASE” (Halda Therapeutics OpCo, Inc., priority 2022, published 2025).)
